Key:
[1] = Bioavailability in rat (dose 1 mg/kg i.v.); format: ADME, organism-based; details: in vivo, iv
[2] = Bioavailability in rat (dose 3 mg/kg p.o.); format: ADME, organism-based; details: in vivo, po
[3] = molecular target: T1, Endothelin receptor type B (Homo sapiens, UniProt P24530); experiment: Inhibitory activity against [125I]ET1 binding to human endothelin B receptor
T1 sequence (P24530 whole entry): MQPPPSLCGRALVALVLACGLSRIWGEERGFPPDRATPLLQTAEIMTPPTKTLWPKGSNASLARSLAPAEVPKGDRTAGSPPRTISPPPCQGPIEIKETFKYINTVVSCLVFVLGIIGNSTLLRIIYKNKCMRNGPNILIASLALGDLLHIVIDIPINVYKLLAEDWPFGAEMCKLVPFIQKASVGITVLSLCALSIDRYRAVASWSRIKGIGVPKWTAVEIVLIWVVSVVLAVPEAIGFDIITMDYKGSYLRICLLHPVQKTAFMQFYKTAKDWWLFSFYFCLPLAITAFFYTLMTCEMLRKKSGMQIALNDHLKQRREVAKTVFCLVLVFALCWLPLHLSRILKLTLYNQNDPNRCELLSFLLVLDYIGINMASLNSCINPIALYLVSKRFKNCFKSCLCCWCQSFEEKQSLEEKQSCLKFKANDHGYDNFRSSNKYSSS

Endothelin-1 receptor = molecular target: T2, Endothelin-1 receptor (Homo sapiens, UniProt P25101); experiment: Inhibitory activity against [125I]ET1 binding to human endothelin A receptor
T2 sequence (P25101 whole entry): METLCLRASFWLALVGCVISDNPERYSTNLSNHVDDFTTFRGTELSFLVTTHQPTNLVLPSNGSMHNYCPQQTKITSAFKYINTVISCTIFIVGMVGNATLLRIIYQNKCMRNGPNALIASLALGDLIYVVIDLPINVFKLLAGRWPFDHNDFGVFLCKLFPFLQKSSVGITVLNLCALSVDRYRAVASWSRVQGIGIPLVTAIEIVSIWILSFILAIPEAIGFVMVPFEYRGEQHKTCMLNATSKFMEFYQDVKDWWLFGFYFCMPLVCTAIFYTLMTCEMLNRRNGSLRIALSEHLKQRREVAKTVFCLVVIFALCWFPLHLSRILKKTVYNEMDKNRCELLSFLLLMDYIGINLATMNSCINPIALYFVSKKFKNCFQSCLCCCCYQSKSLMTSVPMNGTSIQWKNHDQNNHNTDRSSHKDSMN

Mus musculus = experiment: In vivo efficacy of compound was determined in mouse after intravenous administration; format: functional
Oryctolagus cuniculus = organism: Oryctolagus cuniculus; experiment: Antagonistic activity towards endothelin A receptor was evaluated using the rabbit iliac artery in presence of 3% human serum albumin; format: functional

- bioavailability [1]: 70%
- bioavailability [2]: 70%
- IC50 [3]: 48 nM
- IC50 (Endothelin-1 receptor): 0.025 nM
Structure (SMILES): COCC(C)Cc1cc(OC)ccc1[C@@H]1c2nc(NC(C)C)ccc2[C@H](c2ccc3c(c2)OCO3)[C@H]1C(=O)O (stereo in doubt; form 1)
- AD50 (Mus musculus): 0.039 MPK
- PKB (Oryctolagus cuniculus): 8.33

— ChEMBL document CHEMBL1147633, “Structure-activity relationships of a novel class of endothelin receptor selective antagonists; 6-carboxy-2-isopropylamino-5,7-diarylcyclopenteno[1,2-b]pyridines” (Bioorg Med Chem Lett, 2004)
